Here are results for 28 compounds from patent US20040006236A1, “Diaminopropionic acid derivatives” (priority 1999, published 2004).

Experiment [1] deals with T lymphocyte proliferation (C57BI/6 spleen cells with irradiated BALB/c spleen cells). Put plainly: Mixed lymphocyte reaction (MLR), one-way. The experiment is classed as cell-based, mice. As to conditions: read-out: MLR IC50. An excerpt:
Admixture of murine spleen cells from two different inbred strains of mice induces proliferation of T lymphocytes. The magnitude of T cell proliferation depends on the extent of disparity in the major histocompatibility antigens between the two strains. Splenic T lymphocytes from both strains proliferate due to alloantigen recognition, a process for which the interaction of ICAM-1 on antigen-presenting cells with LFA-1 on lymphocytes is necessary. The ability of antagonists to inhibit T lymphocyte proliferation following recognition of alloantigens was assessed in a one-way MLR, where cells from one strain were irradiated to permit measurement of the proliferative response of cells from the other strain. Spleen cells were washed three times in tissue culture medium (TCM; see below). […] One hundred microliters of serial dilutions of antagonists or TCM were added to the spleen cell mixture. The total volume in each well was 200 μL. TCM was RPMI1640 containing 10% heat-inactivated fetal bovine serum, […] L-glutamine, 100 Units/ml each of penicillin and streptomycin and 5×10^−5 M 2-mercaptoethanol. Dilutions of antagonists were prepared in TCM. Plates were incubated in 5% CO2 for 3 days. On the third day, 0.5 μCi of tritiated thymidine (10 μCi/mL) was added to all the wells. Cells were harvested 6 h later on a 96-well plate harvester and the amount of tritiated thymidine incorporated was assessed in a liquid scintillation counter.

The target in experiment [2] is T1, LFA-1 binding to immobilized ICAM-1 (Homo sapiens, UniProt P05107+P20701).
T1 construct: made in house; host or cells: transfected 293 cells (LFA-1)
T1 sequence (P20701 26-1170): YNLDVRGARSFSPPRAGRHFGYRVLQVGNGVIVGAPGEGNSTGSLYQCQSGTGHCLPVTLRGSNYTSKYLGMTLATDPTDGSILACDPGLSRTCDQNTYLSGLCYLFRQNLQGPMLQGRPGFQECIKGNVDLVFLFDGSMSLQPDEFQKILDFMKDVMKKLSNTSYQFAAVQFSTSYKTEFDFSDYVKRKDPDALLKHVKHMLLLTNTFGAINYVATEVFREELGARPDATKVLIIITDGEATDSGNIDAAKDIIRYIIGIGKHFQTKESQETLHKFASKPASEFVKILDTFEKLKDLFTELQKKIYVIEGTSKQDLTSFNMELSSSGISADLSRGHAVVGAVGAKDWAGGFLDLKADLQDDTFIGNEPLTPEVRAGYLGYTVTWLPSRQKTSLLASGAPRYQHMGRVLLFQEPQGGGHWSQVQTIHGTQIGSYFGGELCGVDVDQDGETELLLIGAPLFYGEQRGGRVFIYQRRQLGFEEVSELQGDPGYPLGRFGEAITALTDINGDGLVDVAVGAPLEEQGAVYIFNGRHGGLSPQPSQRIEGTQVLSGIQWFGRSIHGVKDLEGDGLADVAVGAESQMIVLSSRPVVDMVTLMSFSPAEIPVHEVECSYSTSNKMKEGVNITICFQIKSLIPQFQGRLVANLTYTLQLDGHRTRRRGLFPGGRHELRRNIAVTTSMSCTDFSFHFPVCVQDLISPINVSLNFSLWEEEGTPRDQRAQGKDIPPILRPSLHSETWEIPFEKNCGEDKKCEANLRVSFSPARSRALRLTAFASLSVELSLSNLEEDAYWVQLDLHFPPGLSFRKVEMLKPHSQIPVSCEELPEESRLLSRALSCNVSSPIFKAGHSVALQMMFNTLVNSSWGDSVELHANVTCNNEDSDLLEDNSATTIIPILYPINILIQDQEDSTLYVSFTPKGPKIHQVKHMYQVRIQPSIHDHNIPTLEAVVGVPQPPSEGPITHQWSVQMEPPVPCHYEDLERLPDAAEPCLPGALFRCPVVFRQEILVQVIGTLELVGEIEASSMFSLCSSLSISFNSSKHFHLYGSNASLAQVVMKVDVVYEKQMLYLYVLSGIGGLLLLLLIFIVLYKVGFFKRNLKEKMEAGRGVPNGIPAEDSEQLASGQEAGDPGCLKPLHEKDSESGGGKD
T1 sequence (P05107 23-769): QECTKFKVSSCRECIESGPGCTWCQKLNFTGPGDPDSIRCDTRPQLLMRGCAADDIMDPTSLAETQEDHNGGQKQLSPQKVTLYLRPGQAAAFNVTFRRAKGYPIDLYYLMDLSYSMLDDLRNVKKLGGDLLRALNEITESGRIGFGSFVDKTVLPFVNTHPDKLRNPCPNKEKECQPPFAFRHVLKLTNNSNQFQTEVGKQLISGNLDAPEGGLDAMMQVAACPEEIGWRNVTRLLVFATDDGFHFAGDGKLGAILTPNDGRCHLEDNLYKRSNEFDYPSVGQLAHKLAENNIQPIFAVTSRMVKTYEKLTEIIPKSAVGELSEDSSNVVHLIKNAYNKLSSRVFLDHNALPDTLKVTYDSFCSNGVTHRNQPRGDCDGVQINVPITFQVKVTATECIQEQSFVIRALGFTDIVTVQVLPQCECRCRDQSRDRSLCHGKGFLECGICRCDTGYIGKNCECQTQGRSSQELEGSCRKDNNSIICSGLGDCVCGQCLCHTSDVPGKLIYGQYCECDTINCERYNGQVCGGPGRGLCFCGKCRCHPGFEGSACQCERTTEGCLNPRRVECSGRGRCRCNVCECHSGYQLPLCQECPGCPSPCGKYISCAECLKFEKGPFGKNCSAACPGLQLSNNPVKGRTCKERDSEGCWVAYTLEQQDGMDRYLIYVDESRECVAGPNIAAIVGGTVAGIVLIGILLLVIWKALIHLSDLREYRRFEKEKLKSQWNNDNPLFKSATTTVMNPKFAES
Put plainly: LFA-1/ICAM-1 protein-protein assay (solid-phase ELISA). As to conditions: read-out: LFA-1/ICAM-1 Protein-Protein Assay IC50. In outline: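 Human 5dICAM-Ig (ICAM-1 extracellular domain–IgG Fc) coated on plates; membrane-bound LFA-1 from transfected 293 cells (280 ng/mL) added with compound in Mn2+-containing HEPES buffer pH 7.2, 2 h at 37° C. Bound LFA-1 detected via anti-β2 antibody and HRP/TMB at 450 nm; IC50s determined.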
(In general: In an ELISA, binding on a coated surface is turned into a signal by an enzyme label.)

For experiment [3], the system named is cell-surface Mac-1 adhesion to immobilized fibrinogen (HL-60 cells). Put plainly: Mac-1/Fibrinogen cell-based screening assay. The arrangement: species or system human. The note with it: read-out: Mac-1/Fgn Cell based Assay IC50. The protocol:
Cellular Mac-1/Fibrinogen antagonist activity, defined as the ability to inhibit cell-surface Mac-1 adhesion to immobilized fibrinogen, was quantitated by a cell based assay. Human fibrinogen was coated onto 96 well microtiter plates (1 μg in 100 μL TBS) overnight at 4° C. The plates were then blocked with 150 μL of 10% polyvinyl pyrrolidone (PVP) in TBS for 1 h at 37° C. Plates were washed 3 times (150 μL each) with TBS. […] A ten-fold excess of volume of the same buffer was added and cells were centrifuged. The medium was decanted and cells were resuspended at a concentration of 2×10^6 cells/mL in RPMI/0.05% BSA/0.2 mM MnCl2. Stock solutions (10 mM in DMSO) of test compounds were diluted to 2.5 mM with DMSO. […] Each sample was further diluted 50-fold with RPMI/0.05% BSA/0.2 mM MnCl2. Equal volumes of labeled cells were then added to assay tubes containing diluted compounds. […] Cells were incubated for 10 min at 37° C. with gentle shaking, then dispensed (100 μL per well) onto fibrinogen coated plates and incubated for 30 min at 37° C./5% CO2. Unbound cells were gently washed with TBS two times.

The mark [4] stands for this setting: Homo sapiens, HL-60, HL-60 cells.

Like-named read-outs stand apart in the source and are kept apart here.

Turning to `O=C(NC[C@H](NC(=O)c1ccc(C(O)CCc2cccc(O)c2)cc1Cl)C(=O)O)c1cccs1` (mixture of isomers) [Example 320], the IC50 in experiment [1] (Mus musculus, T-lymphocyte) stood at 145 nM; in experiment [2], 1 nM; in experiment [3] (setting [4]) it was 64 nM.

Take `O=C(NCc1cccc(O)c1)c1ccc(C(=O)N[C@@H](CNC(=O)c2cc(Br)cc(Br)c2)C(=O)O)c(Cl)c1` [Example 228, N-[2-chloro-4-[[[(3-hydroxyphenyl)methyl]amino]carbonyl]benzoyl]-3-(3,5-dibromobenzoyl)amino-L-alanine]: the IC50 came out at 5000 nM in experiment [1] (Mus musculus, T-lymphocyte); 7.1 nM in experiment [2]; 149 nM in experiment [3] (setting [4]).

`O=C(NCc1cccc(O)c1)c1ccc(C(=O)N[C@@H](CNC(=O)c2cc(F)cc(C(F)(F)F)c2)C(=O)O)c(Cl)c1` [Example 260]: the IC50 turned out to be 1950 nM in experiment [1] (Mus musculus, T-lymphocyte); 5.4 nM in experiment [2]; 330 nM in experiment [3] (setting [4]).

For the compound `O=C(NCc1cccc(O)c1)c1ccc(C(=O)N[C@@H](CNC(=O)[C@@H]2CSCN2)C(=O)O)c(Cl)c1` [Example 267], the IC50 is 490 nM in experiment [1] (Mus musculus, T-lymphocyte); 2.9 nM in experiment [2]; 71 nM in experiment [3] (setting [4]).

Consider `O=C(NCc1cccc(O)c1)c1ccc(C(=O)N[C@@H](CNC(=O)[C@@H]2C[C@@H](O)CN2)C(=O)O)c(Cl)c1` [Example 268], for which the IC50 is 900 nM in experiment [1] (Mus musculus, T-lymphocyte); 1.7 nM in experiment [2]; 148 nM in experiment [3] (setting [4]).

Take `NCCCCCCCCCCC(=O)NC[C@H](NC(=O)c1ccc(C(=O)NCc2cccc(O)c2)cc1Cl)C(=O)O` [Example 270]: the IC50 was found to be 4750 nM in experiment [1] (Mus musculus, T-lymphocyte); 7.9 nM in experiment [2]; 357 nM in experiment [3] (setting [4]).

For the compound `N[C@@H](Cc1ccc([N+](=O)[O-])cc1)C(=O)NC[C@H](NC(=O)c1ccc(C(=O)NCc2cccc(O)c2)cc1Cl)C(=O)O` [Example 271], the IC50 in experiment [1] (Mus musculus, T-lymphocyte) was 4100 nM; in experiment [2], 3.8 nM; in experiment [3] (setting [4]), 547 nM.

On to `N[C@@H](Cc1ccc(OCc2c(Cl)cccc2Cl)cc1)C(=O)NC[C@H](NC(=O)c1ccc(C(=O)NCc2cccc(O)c2)cc1Cl)C(=O)O` [Example 273], for which the IC50 in experiment [1] (Mus musculus, T-lymphocyte) is 12000 nM; in experiment [2], 7.4 nM; in experiment [3] (setting [4]) it was 1740 nM.

Regarding `N[C@H](Cc1c[nH]c2ccccc12)C(=O)NC[C@H](NC(=O)c1ccc(C(=O)NCc2cccc(O)c2)cc1Cl)C(=O)O` [Example 276], the IC50 in experiment [1] (Mus musculus, T-lymphocyte) amounted to 7250 nM; in experiment [2], 6.9 nM; in experiment [3] (setting [4]), 235 nM.

Regarding `CC(C)C[C@H](N)C(=O)NC[C@H](NC(=O)c1ccc(C(=O)NCc2cccc(O)c2)cc1Cl)C(=O)O` [Example 277], the IC50 was 8700 nM in experiment [1] (Mus musculus, T-lymphocyte); 4.3 nM in experiment [2]; 282 nM in experiment [3] (setting [4]).

As to `CCCC[C@H](N)C(=O)NC[C@H](NC(=O)c1ccc(C(=O)NCc2cccc(O)c2)cc1Cl)C(=O)O` [Example 278], the IC50 came out at 13500 nM in experiment [1] (Mus musculus, T-lymphocyte); 8.5 nM in experiment [2]; 311 nM in experiment [3] (setting [4]).

For `CN[C@@H](C)C(=O)NC[C@H](NC(=O)c1ccc(C(=O)NCc2cccc(O)c2)cc1Cl)C(=O)O` [Example 279], the IC50 in experiment [1] (Mus musculus, T-lymphocyte) came out at 2200 nM; in experiment [2] it was 8 nM; in experiment [3] (setting [4]), 371 nM.

Consider `C[C@H](N)C(=O)NC[C@H](NC(=O)c1ccc(C(=O)NCc2cccc(O)c2)cc1Cl)C(=O)O` [Example 280], for which the IC50 stood at 4200 nM in experiment [1] (Mus musculus, T-lymphocyte); 3.1 nM in experiment [2]; 77 nM in experiment [3] (HL-60 cells).

Regarding `C[C@H](N)C(=O)NC[C@H](NC(=O)c1ccc(C(=O)NCc2cccc(O)c2)cc1Cl)C(=O)O` [Example 281], the figures for the IC50 in experiment [1] and in experiment [3] (HL-60 cells) were 4450 nM and 291 nM, respectively.

Turning to `CC(C)(N)C(=O)NC[C@H](NC(=O)c1ccc(C(=O)NCc2cccc(O)c2)cc1Cl)C(=O)O` [Example 282], the IC50 in experiment [1] (Mus musculus, T-lymphocyte) worked out at 1050 nM; in experiment [2] it was 4.6 nM; in experiment [3] (setting [4]), 162 nM.

With `CNCC(=O)NC[C@H](NC(=O)c1ccc(C(=O)NCc2cccc(O)c2)cc1Cl)C(=O)O` [Example 283], the IC50 came out at 1500 nM in experiment [1] (Mus musculus, T-lymphocyte); 3.1 nM in experiment [2]; 166 nM in experiment [3] (setting [4]).

Regarding `NC1(C(=O)NC[C@H](NC(=O)c2ccc(C(=O)NCc3cccc(O)c3)cc2Cl)C(=O)O)CCCCC1` [Example 284], the IC50 came to 1130 nM in experiment [1] (Mus musculus, T-lymphocyte); 5.7 nM in experiment [2]; 198 nM in experiment [3] (setting [4]).

For the compound `N[C@H](C(=O)NC[C@H](NC(=O)c1ccc(C(=O)NCc2cccc(O)c2)cc1Cl)C(=O)O)c1ccccc1` [Example 285], the IC50 in experiment [1] (Mus musculus, T-lymphocyte) came out at 3100 nM; in experiment [2] it was 3.1 nM; in experiment [3] (setting [4]) it was 135 nM.

Regarding `NC[C@H]1CC[C@H](C(=O)NC[C@H](NC(=O)c2ccc(C(=O)NCc3cccc(O)c3)cc2Cl)C(=O)O)CC1` [Example 286], the IC50 was found to be 1520 nM in experiment [1] (Mus musculus, T-lymphocyte); 4.1 nM in experiment [2]; 74 nM in experiment [3] (setting [4]).

Turning to `N[C@@H](COCc1ccccc1)C(=O)NC[C@H](NC(=O)c1ccc(C(=O)NCc2cccc(O)c2)cc1Cl)C(=O)O` [Example 293], the IC50 in experiment [1] (Mus musculus, T-lymphocyte) was 13500 nM; in experiment [2], 6.3 nM; in experiment [3] (setting [4]) it was 290 nM.

Turning to `N[C@H]1Cc2ccccc2CN(CC(=O)NC[C@H](NC(=O)c2ccc(C(=O)NCc3cccc(O)c3)cc2Cl)C(=O)O)C1=O` [Example 295], the IC50 in experiment [1] (Mus musculus, T-lymphocyte) is 1620 nM; in experiment [2] it was 1.9 nM; in experiment [3] (setting [4]) it was 89 nM.

Regarding `O=C(NCc1cccc(O)c1)c1ccc(C(=O)N[C@@H](CNC(=O)[C@@H]2Cc3c([nH]c4ccccc34)CN2)C(=O)O)c(Cl)c1` [Example 296], the IC50 in experiment [1] (Mus musculus, T-lymphocyte) was 4600 nM; in experiment [2] it was 3.4 nM; in experiment [3] (setting [4]), 167 nM.

`Cc1cc(C(=O)NCc2cccc(O)c2)ccc1C(=O)N[C@@H](CNC(=O)c1ccccc1)C(=O)O` [Example 324]: the IC50 stood at 460 nM in experiment [1] (Mus musculus, T-lymphocyte); 1.5 nM in experiment [2]; 32 nM in experiment [3] (setting [4]).

As for `Cc1cc(C(=O)N[C@H](C)c2cccc3ccccc23)ccc1C(=O)N[C@@H](CNC(=O)c1cccs1)C(=O)O` [Example 325], the IC50 was 965 nM in experiment [1] (Mus musculus, T-lymphocyte); 2.6 nM in experiment [2]; 59 nM in experiment [3] (setting [4]).

Consider `Cc1cc(C(=O)N[C@H](C)c2cccc3ccccc23)ccc1C(=O)N[C@@H](CNC(=O)c1ccccc1)C(=O)O` [Example 326], for which the IC50 in experiment [1] (Mus musculus, T-lymphocyte) turned out to be 1500 nM; in experiment [2], 4.1 nM; in experiment [3] (setting [4]) it was 93 nM.

On to `O=C(NCc1cccc(O)c1)c1ccc(C(=O)N[C@@H](CNC(=O)c2cccs2)C(=O)O)c(Br)c1` [Example 328, N-[2-bromo-4-[[[(3-hydroxyphenyl)methyl]amino]carbonyl]benzoyl]-3-(thiophene-2-carbonyl)amino-L-alanine], for which the IC50 in experiment [1] (Mus musculus, T-lymphocyte) worked out at 160 nM; in experiment [2], 1.3 nM; in experiment [3] (setting [4]), 28 nM.

For the compound `O=C(NCc1cccc(O)c1)c1ccc(C(=O)N[C@@H](CNC(=O)c2cccs2)C(=O)O)c(F)c1` [Example 331], the IC50 was found to be 710 nM in experiment [1] (Mus musculus, T-lymphocyte); 1.1 nM in experiment [2]; 68 nM in experiment [3] (setting [4]).

Consider `O=C(NCc1cccc(O)c1)c1cc(Cl)c(C(=O)N[C@@H](CNC(=O)c2cccc(Cl)c2)C(=O)O)c(Cl)c1` [Example 348, 3-[(3-chlorobenzoyl)amino]-N-[2,6-dichloro-4-[[[(3-hydroxyphenyl)methyl]amino]carbonyl]benzoyl]-L-alanine], for which the IC50 in experiment [1] (Mus musculus, T-lymphocyte) was determined as 173 nM; in experiment [2], 1.3 nM; in experiment [3] (setting [4]), 19.8 nM.
